Tests used:
[1] = test system: Musca domestica, susceptible strain WHO(N); assay: Efficacy of formulations on surfaces (glazed/unglazed tiles), house flies, continuous exposure; assay type: in vivo; settings: strain WHO(N) susceptible, acetone solutions on glazed tiles, mean of three replicates
Method: A flat fan nozzle (type SS 8003-E) in a spray cabin was moved automatically over a defined area where the solutions were sprayed very evenly onto the surfaces. The formulation was mixed with water to give a concentration which corresponded to the desired quantity of a.i./m^2. A defined quantity of this solution was sprayed onto the area (nominal 350 liter/ha=0.77 ml per surface).
All surfaces were provided with talcum-coated glass rings (diameter 9.5 cm, height 5.5 cm) one day later.
The test insects were anesthetized with CO2, 20 individuals were placed onto the treated surfaces and the glass ring was covered with wire gauze ring.
Knock down was determined after 15 and 30′, 1, 2, 4 and 6 hours, mortality after 1 day exposure.
Each test consisted of at least one replicate and any additional replicates are noted.
Test Insects: House flies (Musca domestica) of both sexes, susceptible strain WHO(N) and resistant strain Reichswald
Evaluation: Mortality was evaluated cumulatively at different times. […]
Test Insects: Culex quinquefasciatus (adults) (3 minutes exposure time according to USDA Petri Dish Method), Musca domestica (adults), susceptible and resistant strain, Blattella germanica (males), Cimex lectularius (adults) (all: continuous exposure time)
Application: The EC formulation (diluted with water 1:9) were applied as 0.85 ml solutions onto glazed tiles (15 cm×15 cm)
Evaluation: Knock down after 15, and 30 minutes, 1, 2, 3, 4, 6 and 24 hours (mortality)
Test Insects: Culex quinquefasciatus (adults, susceptible) (3 minutes exposure time according to USDA Petri Dish Method), Musca domestica (adults, susceptible and resistant), Blattella germanica (males, susceptible) (both: continuous exposure time)
Formulations: Insecticide with or without 10% Compound A (as EC), to be diluted with water (1 part formulation+9 parts water)
Evaluation: Knock down after 3, 9 (mosquitoes only), 15, and 30 minutes, 1, 2, 3, 4 and 24 hours (mortality) […]

[2] = test system: Musca domestica, susceptible strain WHO(N); assay: Contact efficacy against houseflies on filter papers in glass dishes; assay type: in vivo; settings: % a.i. conc. in acetone on filter papers, Table 97
Method: Male Musca domestica, susceptible strain WHO(N), were used.
A solution of the active ingredient in acetone was prepared. A concentration row was made. After evaporation of the acetone (30′), the dishes were closed by a glass lid and transferred into the test room. One day later twenty flies, anaesthetized with CO2, are counted into each dish. At regular intervals, knock down was recorded (cumulatively). Each test consisted of one replicate. […]

Aedes aegypti mosquito = assay: USDA Petri Dish Method, 3 min exposure to treated glazed tile; assay type: in vivo; settings: Table 37, resmethrin/adjuvant in acetone, glazed tile, 3 min exposure
Method in brief: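 USDA Petri Dish screen: groups of twenty female Aedes aegypti (4-6 days old) held 3 minutes on dried acetone-based treatments (with/without adjuvant), then transferred to untreated card. Replicated three or more times; knockdown followed over time, mortality recorded 24 hours post-exposure with sucrose-soaked cotton available.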

[3] = test system: Culex quinquefasciatus mosquito; assay: USDA Petri Dish Method, 3 min exposure to treated glazed tile (twenty 4-6 day old females); assay type: in vivo; settings: in vivo
Method: MATERIALS AND METHODS: Solutions of resmethrin at 1 and 0.5% AI were prepared with and without adjuvant in acetone. […] USDA Petri Dish Method was used as initial screening protocol. Twenty, 4-6 day old female Culex quinquefasciatus mosquitoes were exposed to each treatment for 3 minutes and then moved to a clean untreated white paper index card. Treatments were replicated a minimum of three times. Mosquito knockdown was evaluated at 3 minute intervals for the first 15 minutes and then at 5 minute intervals for the remainder of an hour. A small cotton ball soaked in sucrose solution was added on the screen top of the petri-dish as a drinking source after the 2 hour evaluation. Mortality was evaluated at 24 hours after exposure.
Treatments were allowed to dry overnight. USDA Petri Dish Method was used as initial screening protocol. Twenty, 4-6 day old female Culex mosquitoes were exposed to each treatment for 3 minutes and then moved to a clean untreated white paper index card. Treatments were replicated a minimum of three times. Mosquito knockdown was evaluated at various intervals through 3 hours after exposure. A small cotton ball soaked in sucrose solution was added on the screen top of the petri-dish as a drinking source. Mortality was evaluated at 24 hours after exposure.
Treatments were allowed to dry overnight. USDA Petri Dish Method was used as initial screening protocol. Twenty, 4-6 day old female Culex quinquefasciatus mosquitoes were exposed to each treatment for 3 minutes and then moved to a clean untreated white paper index card. Treatments were replicated a minimum of three times. Mosquito knockdown was evaluated at various intervals through 2 hours after exposure. A small cotton ball soaked in sucrose solution was then added on the screen top of the petri-dish as a drinking source. Mortality was evaluated at 24 hours after exposure.
Treatments were allowed to dry overnight. USDA Petri Dish Method was used as initial screening protocol. Twenty, 4-6 day old female Culex quinquefasciatus mosquitoes were exposed to each treatment for 3 minutes and then moved to a clean untreated white paper index card. Treatments were replicated a minimum of three times. Mosquito knockdown was evaluated at various hourly intervals. A small cotton ball soaked in sucrose solution was added on the screen top of the petri-dish as a drinking source after 2 hours. Mortality was evaluated at 24 hours after exposure.

[4] = assay type: physicochemical; settings: classified from Log P
Source text: As used herein, a “partition coefficient” is defined as the ratio of concentrations of an un-ionized compound between solutions of water and octanol. To measure the partition coefficient of ionizable solutes, the pH of the aqueous phase is adjusted such that the predominant form of the compound is un-ionized. The logarithm of the ratio of the concentrations of the un-ionized solute in the solvents is referred to herein as log P or log K ow.
As noted herein, the octanol-water partition coefficient may be used to identify the cuticular penetration of a particular active ingredient. One factor in the relative speed through which any insecticide acts is the insecticide's ability to cross the insect cuticle. A determining factor for cuticle penetration is Log K ow, also known as Log P. Log K ow (Log P) is the octanol-water partition coefficient for a neutral molecule. Log P is used hereinfurther, but, as noted above, the term is synonymous with Log K ow. As previously noted, the cuticular penetration of any particular active ingredient as against a plant cuticle is not indicative of that same active ingredient's ability to penetrate an insect cuticle.
The cuticular penetration of a compound is classified as “INTERMEDIATE” when the Log P value is between about 2.0 and about 4.0.

Compound | % knock down after ([2]; 15′) [%] | % knock down after ([2]; 30′) [%] | % knock down after ([2]; 1 h) [%] | % knock down after ([2]; 1.5 h) [%] | % knock down after ([2]; 2 h) [%] | % knock down after ([2]; 3 h) [%] | % knock down after ([2]; 4 h) [%] | % knock down after ([2]; 6 h) [%] | % knock down after ([2]; 1 d) [%] | other results
CC1(C)[C@H](C(=O)O[C@H](C#N)c2cccc(Oc3ccccc3)c2)[C@@H]1C=C(Br)Br [0.001% DTM] |  |  |  |  |  |  |  |  |  | % Mortality after ([1]; 15′): 2%; % Mortality after ([1]; 30′): 18%; % Mortality after ([1]; 1 h): 58%; % Mortality after ([1]; 2 h): 80%; % Mortality after ([1]; 3 h): 88%; % Mortality after ([1]; 24 h): 92%
CC1(C)C(C=C(Br)Br)C1C(=O)OC(C#N)c1cccc(Oc2ccccc2)c1 (stereo not shown) [0.0016% DTM] | 0 | 5 | 70 | 90 | 100 | 100 | 100 | 100 | 95 | 
CC1(C)[C@H](C(=O)O[C@H](C#N)c2cccc(Oc3ccccc3)c2)[C@@H]1C=C(Br)Br [0.00032% DTM] | 0 | 0 | 5 | 30 | 50 | 65 | 65 | 60 | 95 | 
CC1(C)[C@H](C(=O)O[C@H](C#N)c2cccc(Oc3ccccc3)c2)[C@@H]1C=C(Br)Br [0.000064% DTM] | 0 | 0 | 0 | 0 | 0 | 0 | 0 | 15 | 80 | 
CC1(C)[C@H](C(=O)O[C@H](C#N)c2cccc(Oc3ccccc3)c2)[C@@H]1C=C(Br)Br [0.0000128% DTM] | 0 | 0 | 0 | 0 | 0 | 0 | 0 | 15 | 70 | 
CC(C)=CC1C(C(=O)OCc2coc(Cc3ccccc3)c2)C1(C)C (stereo not shown) [Resmethrin (1%)] |  |  |  |  |  |  |  |  |  | Average % Knockdown & Mortality after 3 min (Aedes aegypti mosquito; 3 min): 66%; Average % Knockdown & Mortality after 15 min (Aedes aegypti mosquito; 15 min): 100%; Average % Knockdown & Mortality after 30 min (Aedes aegypti mosquito; 30 min): 100%; Average % Knockdown & Mortality after 60 min (Aedes aegypti mosquito; 60 min): 100%; Average % Knockdown & Mortality after 24 hr (Aedes aegypti mosquito; 24 hr): 100%; Average % Knockdown & Mortality after 3 min [3]: 0%; Average % Knockdown & Mortality after 15 min [3]: 2%; Average % Knockdown & Mortality after 30 min [3]: 13%; Average % Knockdown & Mortality after 60 min [3]: 11%; Average % Knockdown & Mortality after 2 hr [3]: 2%; Average % Knockdown & Mortality after 24 hr [3]: 4%
CCOP(=S)(OCC)Oc1nc(Cl)c(Cl)cc1Cl [chlorpyrifos] |  |  |  |  |  |  |  |  |  | Likelihood of Direct Insect Cuticular Penetration [4]: Fast (classified as “FAST” when it has a Log P value of about >4.0)
CCOP(=S)(OCC)Oc1cc(C)nc(C(C)C)n1 [diazinon] |  |  |  |  |  |  |  |  |  | Likelihood of Direct Insect Cuticular Penetration [4]: Intermediate (classified as “INTERMEDIATE” when the Log P value is between about 2.0 and about 4.0)
